According to patent US5756505A, “N-acylpiperazine derivative, antibacterial drug and anti-ulcer drug” (Shiseido Co., Ltd., priority 1995, dated 1998):

Key:
[1] = system: acid secretion; assay: VOL, TAO: Acid Secretion Inhibition Test In Vivo; design: species or system rat (male Crj:Donryu); conditions: rat; for TAO: total acid output inhibitory rate / VOL: gastric juice volume inhibitory rate: 100 mg/kg oral, histamine-stimulated, pylorus ligated; for gastric acid secretion inhibition effect (in words): in vivo
Method: VOL, TAO: Acid Secretion Inhibition Test In Vivo
Inhibitory effect on acid secretion in vivo is confirmed.
Male Crj:Donryu rats (7-week-old) were fasted overnight but allowed free access to water. In each group, 8 to 10 of these rats were used under urethane anesthesia (1.25 g/kg). The sample compound dissolved or suspended in an aqueous solution of 0.5% sodium carboxymethylcellulose or 0.05% Tween 80 was orally administered (100 mg/10 ml/kg). 30 minutes later, the abdomen of each was incised and the pylorus was ligated. 30 minutes after the ligation, 30 mg/kg of histamine dissolved in physiological saline were subcutaneously administered and, 3 hours thereafter, the rat was sacrificed with carbon dioxide. Immediately thereafter, each stomach was removed and the gastric contents were collected and each volume was determined. The total acid output was determined by titration of the gastric juice with 0.1N NaOH.
With respect to the gastric juice volume (VOL) and the total acid output (TAO), the effects obtained when 100 mg/kg of the sample compound had been administered were expressed as their respective inhibitory rates (%) as follows:
each inhibitory rate (%)=[1-(value in sample group/value in control group)]×100

[2] = system: mice; assay: AT: Single Dose Toxicity Pretest; type: in vivo, mouse (male Slc:ICR)
Method: AT: Single Dose Toxicity Pretest
Male Slc:ICR mice (5-week-old) were used. Each group has 3 to 5 mice and each mouse was fasted, but allowed free access to water, for 4 to 5 hours from 9 a.m. in the test day. Then, 2,000 mg/10 ml/kg of the sample compound dissolved or suspended in an aqueous solution of 0.5% sodium carboxymethylcellulose were orally administered thereto. To a control, only the vehicle was administered. […] The body weight was measured before and after the fasting as well as at the same time everyday. The dead animals were immediately subjected to autopsy and their organs were observed macroscopically. Also, the living animals were sacrificed with ether or carbon dioxide one week after the administration and then their organs were observed macroscopically.
The toxicity at the single dose of 2,000 mg/kg of the sample compound was expressed as being classified into 5 levels.
5: Mortality rate is 0%; no toxicity is found at all both in behavior and organs.
4: Mortality rate is 0%; while no toxicity is found in organs, slight toxicity is observed in behavior and body weight increase.
3: While there is a dead animal (though not all the animals are dead), no toxicity is found in organs.
2: Regardless of whether there is a dead animal or not, toxicity is found in organs.
1: All the animals are dead.

[3] = Tests for Safety (PD, AT, MTT), overall statement
Text: Based on the foregoing effect tests and safety tests, the anti-ulcer effect, antibacterial activity against HP, and safety of the example compounds of the present invention were studied.

Row | Structure (SMILES) | TAO: total acid output inhibitory rate [1] [%] | VOL: gastric juice volume inhibitory rate [1] [%] | also measured
1 | CC(C)Cc1cc(C(=O)N2CCN(CC(C)C)CC2)ccc1OCc1ccccc1F.Cl [Example 19, 1-[4-(2-fluorobenzyloxy)-3-isobutylbenzoyl]-4-isobutylpiperazine hydrochloride] | 42 | 6 | –
2 | CC(C)Cc1cc(CN2CCN(CC(C)C)CC2)ccc1OCc1ccc(F)cc1.Cl.Cl [Example 20, 1-[4-(4-fluorobenzyloxy)-3-isobutylbenzyl]-4-isobutylpiperazine dihydrochloride] | 43 | 12 | –
3 | CC(C)Cc1cc(C(=O)N2CCN(CC(C)C)CC2)ccc1OCc1ccc(F)cc1F.Cl [Example 24, 1-[4-(2,4-difluorobenzyloxy)-3-isobutylbenzoyl]-4-isobutylpiperazine hydrochloride] | 33 | 7 | –
4 | CC(C)Cc1cc(C(=O)N2CCN(CC(C)C)CC2)ccc1OCc1ccccc1 [Example 16, 1-(4-benzyloxy-3-isobutylbenzoyl)-4-isobutylpiperazine] | – | – | AT: toxicity at single dose, level ([2]; mouse, in vivo): 2
5 | CC(C)Cc1cc(C(=O)N2CCN(CC(C)C)CC2)ccc1OCc1ccc(Cl)cc1 [Example 17, 1-[4-(4-chlorobenzyloxy)-3-isobutylbenzoyl]-4-isobutylpiperazine] | – | – | AT: toxicity at single dose, level ([2]; mouse, in vivo): 2
6 | CC(C)Cc1cc(C(=O)N2CCN(CC(C)C)CC2)ccc1OCc1ccc(F)cc1.O=C(O)C(=O)O [Example 25, 1-[4-(4-fluorobenzyloxy)-3-isobutylbenzoyl]-4-isobutylpiperazine oxalate] | 47 | 19 | –
7 | CC(C)Cc1cc(C(=O)N2CCN(CC(C)C)CC2)ccc1OCc1ccc([N+](=O)[O-])cc1.Cl [Example 13, 1-isobutyl-4-[3-isobutyl-4-(4-nitrobenzyloxy)benzoyl]piperazine hydrochloride] | 18 | 3 | –
8 | CC(C)Cc1cc(C(=O)N2CCN(CC(C)C)CC2)ccc1OCc1ccc(F)cc1 [Example 21, 1-[4-(4-fluorobenzyloxy)-3-isobutylbenzoyl]-4-isobutylpiperazine] | 35 | 9 | gastric acid secretion inhibition effect (in words) [1]: improved; safety (in words) [3]: great improvement in safety
9 | CC(C)Cc1cc(CC(=O)N2CCN(CC(C)C)CC2)ccc1OCc1ccccc1 [Example 15, 1-(4-benzyloxy-3-isobutylphenylacetyl)-4-isobutylpiperazine] | – | – | AT: toxicity at single dose, level ([2]; mouse, 2,000 mg/kg oral, one week): 2
10 | CC(C)Cc1cc(C(=O)N2CCN(CC(C)C)CC2)ccc1OCc1ccc(F)c(F)c1.Cl [Example 23, 1-[4-(3,4-difluorobenzyloxy)-3-isobutylbenzoyl]-4-isobutylpiperazine hydrochloride] | 9 | -9 | –
11 | CC(C)CN1CCN(C(=O)c2ccc(OCc3ccc(F)cc3)c([N+](=O)[O-])c2)CC1.Cl [Example 8, 1-[4-(4-fluorobenzyloxy)-3-nitrobenzoyl]-4-isobutylpiperazine hydrochloride] | 16 | 8 | –
12 | CC(C)Cc1cc(C(=O)N2CCN(CC(C)C)CC2)ccc1OCc1ccc(F)cc1.Cl [Example 22, 1-[4-(4-fluorobenzyloxy)-3-isobutylbenzoyl]-4-isobutylpiperazine hydrochloride] | 22 | 10 | gastric acid secretion inhibition effect (in words) [1]: improved; safety (in words) [3]: great improvement in safety
